From patent US10577362B2, “Substituted 2, 4-diamino-quinoline derivatives for use in the treatment of proliferative diseases” (GENOSCIENCE PHARMA, priority 2016, dated 2020)
Counter-ions that a name gives are not always drawn.

Key:
Type in all cases: cell-based, human
[1] = test system: 786-O (renal adenocarcinoma) cell line; test: CellTiter-Glo luminescent cell viability assay, 786-O; settings: Homo sapiens, 786-0; for EC50: 786-O cell line, 72 h incubation, CellTiter-Glo, read-out: EC50, growth inhibition of 786-O; for viability at 4 µM / viability at 10 µM: 786-O, 72 h; for viability at 4 µM: compound at 4 μM; for viability at 10 µM: compound at 10 μM
Protocol: (§1) All cell lines were maintained in medium containing 1% penicillin-streptomycin (Dutscher, P06-07100) and 10% Fetal Bovine Serum (Hyclone Dutscher, RZK35922) cultured at 37° C. with 5% CO2. HepG2 (hepatocellular carcinoma), cell line was cultured in Dulbecco's modified Eagle's medium low glucose (Gibco, 21885025), Huh7 (hepatocellular carcinoma), HCT-116 (colorectal carcinoma), PANC-1 (prancreatic carcinoma) and A375 (malignant melanoma) cell lines were cultured in Dulbecco's modified Eagle's medium (Dutscher, L0103). MOLM-14 (acute myeloid leukemia) cell line was maintained in MEM alpha medium (Gibco, 22561-021). 786-0 (renal adenocarcinoma) cell lines were maintained in RPMI 1640 medium (Dutscher, L0498).
(§2) Cell viability was measured using the CellTiter-Glo® luminescent cell viability assay as described by the manufacturer (Promega, Ref G7571) using an Infinite F200Pro luminometer (Tecan). Briefly, for adherent cells, cells were plated onto 96-well plates (white with clear bottom) in 90 μL of media per well and were allowed to grow overnight before the assay. For cells growing in suspension, cells were plated onto 96-well plates 1 h before the assay.
(§3) Compounds were resuspended in H2O or DMSO and added at different concentrations to each well, and cell cultures were incubated for 72 h. Each diluent (H2O or DMSO) were used as a control, and all compounds were tested in a constant percentage of H2O or DMSO. On the day of the reading, plates are equilibrated 30 min at room temperature before the addition of 100 μL of CellTiter-Glo® and luminescence was measured using an Infinite F200Pro (Tecan). % cell viability were expressed as a percentage of the signal obtained for cell cultures treated with diluent. EC50 values were determined as the dose of compound required to reduce luminescent values to 50% of the signal obtained for cell cultures treated with diluent. The experimental data were analyzed using a computer program, Graphpad Prism v5 (GraphPad Software, Inc. La Jolla, Calif.). All points were at least done in duplicate.

[2] = test system: Huh7 (hepatocellular carcinoma) cell line; test: CellTiter-Glo luminescent cell viability assay, Huh7; settings: Homo sapiens, Huh-7; for EC50: Huh7 cell line, 72 h incubation, CellTiter-Glo, read-out: EC50, growth inhibition of Huh7; for viability at 4 µM: Huh7, compound at 4 μM; for viability at 4 µM / viability at 10 µM: 72 h; for viability at 10 µM: Huh7, compound at 10 μM
Protocol: as §1, §2, §3

[3] = test system: HCT-116 (colorectal carcinoma) cell line; test: CellTiter-Glo luminescent cell viability assay, HCT-116; settings: Homo sapiens; for EC50: HCT-116 cell line, 72 h incubation, CellTiter-Glo, read-out: EC50, growth inhibition of HCT-116; for viability at 4 µM: HCT-116, compound at 4 μM; for viability at 4 µM / viability at 10 µM: 72 h; for viability at 10 µM: HCT-116, compound at 10 μM
Protocol: as §1, §2, §3

[4] = test system: MOLM-14 (acute myeloid leukemia) cell line; test: CellTiter-Glo luminescent cell viability assay, MOLM-14; settings: Homo sapiens; for EC50: MOLM-14 cell line, 72 h incubation, CellTiter-Glo, read-out: EC50, growth inhibition of MOLM-14; for viability at 4 µM: MOLM-14, compound at 4 μM; for viability at 4 µM / viability at 10 µM: 72 h; for viability at 10 µM: MOLM-14, compound at 10 μM
Protocol: as §1, §2, §3

[5] = test system: A375 (malignant melanoma) cell line; test: CellTiter-Glo luminescent cell viability assay, A375; settings: Homo sapiens, A-375; for EC50: A375 cell line, 72 h incubation, CellTiter-Glo, read-out: EC50, growth inhibition of A375; for viability at 4 µM: A375, compound at 4 μM; for viability at 4 µM / viability at 10 µM: 72 h; for viability at 10 µM: A375, compound at 10 μM
Protocol: as §1, §2, §3

[6] = test system: HepG2 (hepatocellular carcinoma) cell line; test: CellTiter-Glo luminescent cell viability assay, HepG2; settings: Homo sapiens; for EC50: HepG2 cell line, 72 h incubation, CellTiter-Glo, read-out: EC50, growth inhibition of HepG2; for viability at 4 µM / viability at 10 µM: HepG2, HepG, 72 h; for viability at 4 µM: compound at 4 μM; for viability at 10 µM: compound at 10 μM
Protocol: as §1, §2, §3

SMILES	EC50 [1] [µM]	EC50 [2] [µM]	EC50 [3] [µM]	EC50 [4] [µM]	EC50 [5] [µM]	EC50 [6] [µM]	viability at 4 µM [1] [%]	viability at 10 µM [1] [%]	viability at 4 µM [2] [%]	viability at 10 µM [2] [%]	viability at 4 µM [3] [%]	viability at 10 µM [3] [%]	viability at 4 µM [4] [%]	viability at 10 µM [4] [%]	viability at 4 µM [5] [%]	viability at 10 µM [5] [%]	viability at 4 µM [6] [%]	viability at 10 µM [6] [%]
Clc1ccc(CNc2cc(N3CC(N4CCCC4)C3)c3ccccc3n2)cc1 [Compound 116, 2-(4-chlorobenzylamino)-4-[3-(pyrrolidin-1-yl)azetidin-1-yl]quinoline hydrochloride]	0.5 to 5	0.5 to 5	0.5 to 5	0.5 to 5	0.5 to 5	0.5 to 5												
Clc1ccc(CNc2cc(N3CC(N4CCOCC4)C3)c3ccccc3n2)cc1 [Compound 118, 2-(4-chlorobenzylamino)-4-[3-(morpholin-4-yl)azetidin-1-yl]quinoline hydrochloride]	0.5 to 5	5 to 10	5 to 10	5 to 10	5 to 10	5 to 10												
N#Cc1c(NCc2ccc(Cl)cc2)nc2ccccc2c1N1CCC(N2CCOCC2)CC1 [Compound 202CN, 2-(4-chlorobenzylamino)-3-cyano-4-[4-(morpholino)piperidin-1-yl]quinoline]							66.3	51.9	83.6	56.1	65.8	33.5	112	64.2	96.9	79.2	80.2	51.1
CN(Cc1ccc(Cl)cc1)c1cc(N2CCC(NC(C)(C)C)CC2)c2ccccc2n1 [Compound 212, 2-(N-4-chlorobenzyl-N-methylamino)-4-[4-(tert-butylamino)-piperidin-1-yl]-quinoline, Hydrochloride Salt]	5 to 10	5 to 10	0.5 to 5	5 to 10	0.5 to 5	0.5 to 5												
CCN(Cc1ccc(Cl)cc1)c1cc(N2CCC(NC(C)(C)C)CC2)c2ccccc2n1 [Compound 214, 2-(N-4-chlorobenzyl-N-ethylamino)-4-[4-(tert-butylamino)-piperidin-1-yl]-quinoline hydrochloride]							6.5	0.4	43	0.4	0.2	0.3	26.8	16.4	0.4	0.4	0.3	0.4
CC(C)N(Cc1ccc(Cl)cc1)c1cc(N2CCC(NC(C)(C)C)CC2)c2ccccc2n1 [Compound 216, 2-(N-4-chlorobenzyl-N-isopropylamino)-4-[4-(tert-butylamino)-piperidin-1-yl]-quinoline hydrochloride]							78.4	0.5	74.1	0.5	15.5	0.3	86.7	0.5	78.1	0.4	30.4	0.4
CC(C)CN(Cc1ccc(Cl)cc1)c1cc(N2CCC(NC(C)(C)C)CC2)c2ccccc2n1 [Compound 220, 2-(N-4-chlorobenzyl-N-isobutylamino)-4-[4-(tert-butylamino)-piperidin-1-yl]-quinoline]							74.6	0.4	81.5	0.3	60.9	0.3	78.9	52.6	76.3	0.3	79.6	31
CC(C)(C)NC1CCN(c2c(F)c(NCc3ccc(Cl)cc3)nc3ccccc23)CC1 [Compound 348, 2-(4-chlorobenzylamino)-3-fluoro-4-[4-(tert-butylamino)piperidin-1-yl]quinoline Hydrochloride Salt]	0.5 to 5	5 to 10	0.5 to 5	0.5 to 5	0.5 to 5	0.5 to 5												
Cc1c(NCc2ccc(Cl)cc2)nc2ccccc2c1N1CCC(NC(C)(C)C)CC1 [Compound 350, 2-(4-chlorobenzylamino)-3-methyl-4-[4-(tert-butylamino)piperidin-1-yl]quinoline]	0.5 to 5	5 to 10	0.5 to 5	5 to 10	0.5 to 5	0.5 to 5												
CC(C)(C)NC1CCN(c2c(C#N)c(NCc3ccc(Cl)cc3)nc3ccccc23)CC1 [Compound 352CN, 2-(4-chlorobenzylamino)-3-cyano-4-[4-(tert-butylamino)piperidin-1-yl]quinoline]							52.4	0.5	73.2	0.6	43.9	0.5	76.9	0.6	29.1	0.5	71.2	0.6
COC(=O)c1c(NCc2ccc(Cl)cc2)nc2ccccc2c1N1CCC(NC(C)(C)C)CC1 [Compound 354, methyl 4-(4-(tert-butylamino)piperidin-1-yl)-2-(4-chlorobenzylamino) quinoline-3-carboxylate]	0.5 to 5	0.5 to 5	0.5 to 5	0.5 to 5	0.5 to 5	5 to 10												
Cc1cc(CNc2nc3ccccc3c(N3CCC(NC(C)(C)C)CC3)c2C#N)ccc1Nc1nccc(-c2cccnc2)n1 [Compound 498CN, 2-[4-(4-(pyridin-3-yl)pyrimidin-2-ylamino)-3-methylbenzylamino]-3-cyano-4-(4-tert-butylaminopiperidin-1-yl)quinoline]							0.2	0.1	58.5	0.2	0.2	0.1	0.3	0.2	0.2	0.1	0.2	0.1
Cc1ccnc(Nc2ccc(Nc3nc4ccccc4c(N4CCC(NC(C)(C)C)CC4)c3C#N)cc2C)n1 [Compound 500CN, 2-[4-(4-methyl-2-pyrimidinamino)-3-methyl-phenylamino]-3-cyano-4-(4-tert-butylaminopiperidin-1-yl)-quinoline]	5 to 10	5 to 10	0.5 to 5	5 to 10	5 to 10	5 to 10												
Cc1cc(F)cc2c(N3CCC(NC(C)(C)C)CC3)cc(NCc3ccc(Cl)cc3)nc12 [Compound 580, 2-(4-chlorobenzylamino)-4-[4-(tert-butylamino)piperidin-1-yl]-6-fluoro-8-methylquinoline]	0.5 to 5		0.5 to 5	0.5 to 5	0.5 to 5	0.5 to 5												
O=C(C1CCN(c2cc(NCc3ccc(Cl)cc3)nc3ccccc23)CC1)N1CCCC1 [Compound 1648, 2-(4-chlorobenzylamino)-4-[4-(pyrrolidine-1-carbonyl)piperidin-1-yl]quinoline, hydrochloride]		0.5 to 5																
OC1CCN(c2cc(NCc3ccc(Cl)cc3)nc3ccccc23)CC1 [Compound 2916, 2-(4-chlorobenzylamino)-4-(4-hydroxypiperidin-1-yl)quinoline, hydrochloride]	5 to 10	0.5 to 5	5 to 10		5 to 10	0.5 to 5												
